Measurements as given in patent US20220389359A1, “USE OF PERFLUORO-N-OCTANE FOR PIEZO-MEDIATED INTRACYTOPLASMIC SPERM INJECTION” (priority 2019, published 2022).
Entries after “also recorded” stand apart in the source; their conditions may differ.

Assays:
[1] = tested on: 2PN (two pronuclei) mouse embryos; experiment: Mouse embryo development after incubation in fluorinated compounds; format: cell-based; details: for Mean T2 to T3 (mean time from 2-cell stage to 3-cell stage) / # embryos showing degeneration / Pace of embryo development compared to untreated control embryos / Mean T2 (mean time taken to reach the 2-cell stage): incubated 3 minutes in compound; for # embryos showing degeneration / Pace of embryo development compared to untreated control embryos: cultured 5 days; for Mean T2 (mean time taken to reach the 2-cell stage): embryos that reached 2-cell stage; for # 2-cell stage / # 3-cell stage / # expanded blastocyst / # hatching/hatched blastocyst: number of embryos; for # 2-cell stage / # 3-cell stage / # expanded blastocyst / # hatching/hatched blastocyst / # 2-cell stage (%) / # 3-cell stage (%) / # expanded blastocyst (%) / # hatching/hatched blastocyst (%): incubated 3 minutes, within 5-day incubation; for # 2-cell stage (%) / # 3-cell stage (%) / # expanded blastocyst (%) / # hatching/hatched blastocyst (%): proportion of 2PN embryos
Method: The effects of incubation in different fluorinated compounds on embryo development were tested.
223 2PN (two pronuclei) mouse embryos were randomly divided into four groups: A) raw perfluoro-n-octane; B) a commercially available perfluorohydrocarbon mixture previously used as operating liquid for Piezo-ICSI; C) purified perfluoro-n-octane; and D) untreated control.
Embryos in groups A, B and C were incubated for 3 minutes in the respective compound then transferred to culture medium. Embryos in all groups were then cultured for 5 days in an incubator (37.5° C., relative 100% humidity, 5% CO2 in air).
The number of embryos in each group showing signs of degeneration was counted.
The number of embryos in each group reaching the 2-cell, 3-cell, expanded blastocyst and hatching/hatched blastocyst stages of development within the 5-day incubation was counted.
The mean time taken to reach the 2-cell stage (T2) by those embryos that did, and the mean time taken for those embryos to develop from the 2-cell stage to the 3-cell stage (T3) were measured.

[2] = 25° C.; cited from earlier work
oocytes = experiment: Assisted reproduction using Piezo-ICSI with purified perfluoro-n-octane operating liquid compared to c-ICSI; format: in vivo, human; details: Piezo-ICSI with purified perfluoro-n-octane as operating liquid
Description: The efficacy of assisted reproduction using c-ICSI was compared to using Piezo-ICSI was compared. Purified perfluoro-n-octane was used as operating liquid for Piezo-ICSI.
In particular, 69 patients having at least 6 mature oocytes were randomly divided into two groups. The first group underwent assisted reproduction in which sperm was introduced into oocytes using c-ICSI. The second group underwent assisted reproduction in which sperm was introduced into oocytes using Piezo-ICSI.
c-ICSI was performed using Eppendorf 2K control with ICSI micropipettes (TPC, Cooper Surgical). Piezo-ICSI was performed using PMM and Piezo micropipettes (Primetech). Purified perfluoro-n-octane was used as operating liquid in Piezo-ICSI.

Compound	Mean T2 to T3 (mean time from 2-cell stage to 3-cell stage) [1]	# embryos showing degeneration [1]	Pace of embryo development compared to untreated control embryos [1]	Mean T2 (mean time taken to reach the 2-cell stage) [1]	# 2-cell stage [1]	# 3-cell stage [1]	# expanded blastocyst [1]	# hatching/hatched blastocyst [1]	# 2-cell stage (%) [1]	# 3-cell stage (%) [1]	# expanded blastocyst (%) [1]	# hatching/hatched blastocyst (%) [1]	Surface tension [2]	Vapour pressure [2]	Additional embryos for vitrification on average compared to c-ICSI (oocytes)	Average number of embryos for vitrification (oocytes; c-ICSI 2.7)	Oocyte degeneration rate (oocytes; c-ICSI 10.2%)	Utilisation rate (oocytes; c-ICSI 45.6%)	Clinical pregnancy rate (oocytes; c-ICSI 50%)	Fertilization rate (oocytes successfully fertilised) (oocytes; c-ICSI 65.9%, p<0.05)
FC(F)(F)C(F)(F)C(F)(F)C(F)(F)C(F)(F)C(F)(F)C(F)(F)C(F)(F)F [raw perfluoro-n-octane, perfluoro-n-octane]	1518 min	0	developed more slowly than control embryos	1394 min	52	45	36	9	(95%)	(82%)	65%	16%								
FC(F)(F)C(F)(F)C(F)(F)C(F)(F)C(F)(F)C(F)(F)C(F)(F)C(F)(F)F [perfluoro-n-octane, 1,1,1,2,2,3,3,4,4,5,5,6,6,7,7,8,8,8-octadecafluorooctane]		none											16 mN/m	3.4 mbar						
FC(F)(F)C(F)(F)C(F)(F)C(F)(F)C(F)(F)C(F)(F)C(F)(F)C(F)(F)F [purified perfluoro-n-octane, perfluoro-n-octane]	1293 min	0	developed at a pace comparable to untreated control embryos; also recorded: does not negatively affect embryo development	1304 min	51	48	45	33	(93%)	(87%)	82%	60%			1	3.8	3.8%	47.3%	55%	80.6%
